Our source for the IC50 values is patent US10745382B2 (BRISTOL-MYERS SQUIBB COMPANY, priority 2015, dated 2020).

T1 sequence (Q9NZQ7 with tags, fused parts or gaps): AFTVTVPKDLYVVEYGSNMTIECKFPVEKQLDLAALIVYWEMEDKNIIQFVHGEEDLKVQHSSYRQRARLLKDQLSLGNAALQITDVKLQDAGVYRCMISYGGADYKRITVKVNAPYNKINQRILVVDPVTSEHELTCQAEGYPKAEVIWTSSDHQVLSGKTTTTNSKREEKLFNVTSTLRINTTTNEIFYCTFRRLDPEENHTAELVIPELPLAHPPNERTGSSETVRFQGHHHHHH

The test concerns the target T1, PD-1/PD-L1 (Homo sapiens, UniProt Q9NZQ7).
T1 construct: made in house; host or cells: HEK293T
The experiment in a line: PD-1/PD-L1 Homogenous Time-Resolved Fluorescence (HTRF) binding assay. Particulars: PD-L1-His 10 nM, PD-1-Ig 20 nM; value given as range class; read-out: Range or IC50. In a few lines: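 dPBS + 0.1% BSA + 0.05% Tween-20 buffer; Eu-cryptate anti-Ig 1 nM final, APC anti-His 20 nM final; HTRF read. Counter-assays: PD-1-Ig/PD-L2-His 20 & 5 nM, CD80-His/PD-L1-Ig 100 & 10 nM.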
On to `Cc1c(COc2cc(OCc3cncc(C#N)c3)c(C(C)N3C[C@H](O)C[C@H]3C(=O)O)cc2Cl)cccc1-c1cccc(OCCCN2CC[C@@H](O)C2)c1C` (stereo partly drawn) [Example 4138, (2S,4R)-1-(1-(5-chloro-2-((5-cyanopyridin-3-yl)methoxy)-4-((3′-(3-((R)-3-hydroxypyrrolidin-1-yl)propoxy)-2,2′-dimethyl-[1,1′-biphenyl]-3-yl)methoxy)phenyl)ethyl)-4-hydroxypyrrolidine-2-carboxylic Acid], for which the IC50 fell in the range of 0.21 to 10 nM. Under `Cc1c(COc2cc(OCc3cncc(C#N)c3)c(C(C)N(C)[C@@H](CO)C(=O)O)cc2Cl)cccc1-c1cccc(OCCCN2CC[C@@H](O)C2)c1C` (stereo partly drawn) [Example 4139, N-(1-(5-chloro-2-((5-cyanopyridin-3-yl)methoxy)-4-((3′-(3-((R)-3-hydroxypyrrolidin-1-yl)propoxy)-2,2′-dimethyl-[1,1′-biphenyl]-3-yl)methoxy)phenyl)ethyl)-N-methyl-L-serine] stands 0.21 to 10 nM.

As for `Cc1c(COc2cc(OCc3cncc(C#N)c3)c(C(C)N(C)C(CO)CO)cc2Cl)cccc1-c1cccc(OCCCN2CC[C@@H](O)C2)c1C` (stereo partly drawn) [Example 4140, 5-((4-chloro-2-(1-((1,3-dihydroxypropan-2-yl)(methyl)amino)ethyl)-5-((3′-(3-((R)-3-hydroxypyrrolidin-1-yl)propoxy)-2,2′-dimethyl-[1,1′-biphenyl]-3-yl)methoxy)phenoxy)methyl)nicotinonitrile], the concentration for half-maximal inhibition (IC50) is 0.21 to 10 nM. With `Cc1c(COc2cc(OCc3cncc(C#N)c3)c(C(C)N[C@@H](CO)C(=O)O)cc2Cl)cccc1-c1cccc(OCCCN2CC[C@@H](O)C2)c1C` (stereo partly drawn) [Example 4141, (1-(5-chloro-2-((5-cyanopyridin-3-yl)methoxy)-4-((3′-(3-((R)-3-hydroxypyrrolidin-1-yl)propoxy)-2,2′-dimethyl-[1,1′-biphenyl]-3-yl)methoxy)phenyl)ethyl)-L-serine], the half-inhibitory concentration (IC50) was 0.21 to 10 nM. In the case of `Cc1c(COc2cc(OCc3cncc(C#N)c3)c(CNCC(=O)O)cc2Cl)cccc1-c1cccc(OCCCN2CC[C@@H](O)C2)c1C` [Example 4147, (R)-(5-chloro-2-((5-cyanopyridin-3-yl)methoxy)-4-((3′-(3-(3-hydroxypyrrolidin-1-yl)propoxy)-2,2′-dimethyl-[1,1′-biphenyl]-3-yl)methoxy)benzyl)glycine], the 50% inhibitory concentration (IC50) was 0.21 to 10 nM. To `Cc1c(COc2cc(OCc3cncc(C#N)c3)c(CN[C@H](C(=O)O)[C@@H](C)O)cc2Cl)cccc1-c1cccc(OCCCN2CC[C@@H](O)C2)c1C` [Example 4148, (5-chloro-2-((5-cyanopyridin-3-yl)methoxy)-4-((3′-(3-((R)-3-hydroxypyrrolidin-1-yl)propoxy)-2,2′-dimethyl-[1,1′-biphenyl]-3-yl)methoxy)benzyl)-L-threonine] belongs 0.21 to 10 nM; to `Cc1c(COc2cc(OCc3cncc(C#N)c3)c(CNCCC(=O)O)cc2Cl)cccc1-c1cccc(OCCCN2CC[C@@H](O)C2)c1C` [Example 4149, (R)-3-((5-chloro-2-((5-cyanopyridin-3-yl)methoxy)-4-((3′-(3-(3-hydroxypyrrolidin-1-yl)propoxy)-2,2′-dimethyl-[1,1′-biphenyl]-3-yl)methoxy)benzyl)amino)propanoic Acid], 0.21 to 10 nM; to `Cc1c(COc2cc(OCc3cncc(C#N)c3)c(CN[C@H](C(=O)O)C(C)C)cc2Cl)cccc1-c1cccc(OCCCN2CC[C@@H](O)C2)c1C` [Example 4150, (5-chloro-2-((5-cyanopyridin-3-yl)methoxy)-4-((3′-(3-((R)-3-hydroxypyrrolidin-1-yl)propoxy)-2,2′-dimethyl-[1,1′-biphenyl]-3-yl)methoxy)benzyl)-L-valine], 0.21 to 10 nM.

Consider `CCCC[C@H](NCc1cc(Cl)c(OCc2cccc(-c3cccc(OCCCN4CC[C@@H](O)C4)c3C)c2C)cc1OCc1cncc(C#N)c1)C(=O)O` [Example 4151, (S)-2-((5-chloro-2-((5-cyanopyridin-3-yl)methoxy)-4-((3′-(3-((R)-3-hydroxypyrrolidin-1-yl)propoxy)-2,2′-dimethyl-[1,1′-biphenyl]-3-yl)methoxy)benzyl)amino)hexanoic Acid], for which the IC50 was 0.21 to 10 nM.
